These results are taken from ChEMBL document CHEMBL5233255, “Natural and nature-inspired stilbenoids as antiviral agents” (Eur J Med Chem, 2020).

The subject of data set [1] is Influenza A virus. Kind of data set: Antiviral activity against influenza A virus A/PR/8/34 (H1N1) infected in MDCK cells preincubated 2 hrs followed by viral infection and measured after 24 hrs by MTT assay. Format: functional, organism-based. A general note: Formazan colour is commonly taken as a measure of viable cells.
Data set [2] can be described thus: Cytotoxicity against MDCK cells assessed as reduction in cell viability incubated for 72 hrs by MTT assay. Conditions: dog. It counts as toxicity, cell-based, Canis lupus familiaris.
In data set [3] the test system is Hepatitis C virus. Kind of data set: Antiviral activity against Hepatitis C virus infected in human Huh7.5 cells assessed as reduction in viral replication. Format: functional, organism-based, Hepacivirus hominis.
The nature of data set [4]: Cytotoxicity against human Huh7.5 cells infected with Hepatitis C virus assessed as reduction in cell viability. It counts as toxicity, cell-based, Huh-7.5.
Data set [5] relates to Hepatitis C virus. Kind of data set: Antiviral activity against Hepatitis C virus genotype 2 Rluc-J6/JFH1 infected in human Huh7.5 cells assessed as reduction in viral replication treated for 72 hrs by qRT-PCR analysis. It counts as functional, organism-based, Hepacivirus hominis. Conditions: genotype 2 Rluc-J6/JFH1, Huh7.5, 72 h. In general terms: Quantitative PCR measures a nucleic acid by following its amplification.

The test system of data set [6] is Hepatitis C virus. In words: Antiviral activity against Hepatitis C virus genotype 1 Bart791 infected in human Huh7.5 cells assessed as reduction in viral replication treated for 72 hrs by qRT-PCR analysis. Particulars: genotype 1 Bart791, Huh7.5, 72 h. It counts as functional, organism-based, Hepacivirus hominis.
Data set [7] deals with Hepatitis C virus. Kind of data set: Antiviral activity against Hepatitis C virus genotype 2 J6/JFH1 infected in human Huh7.5 cells assessed as reduction in viral replication treated for 72 hrs by qRT-PCR analysis. It counts as functional, organism-based, Hepacivirus hominis. Particulars: genotype 2 J6/JFH1, Huh7.5, 72 h.
In data set [8] the test system is Human alphaherpesvirus 1. Kind of data set: Antiviral activity against HSV-1 15577 infected in African green monkey Vero cells incubated for 3 days by plaque reduction assay. Format: functional, organism-based. Particulars: Human alphaherpesvirus 1, 15577, Vero, 72 h. On the technique in general: Plaque reduction counts the foci of infection that form in a cell layer.

Data set [9] relates to Human alphaherpesvirus 1. Kind of data set: Antiviral activity against HSV-1 clinical isolate infected in African green monkey Vero cells incubated for 3 days by plaque reduction assay. Particulars: Human alphaherpesvirus 1, Vero, 72 h. Format: functional, organism-based.
In data set [10] the test system is Human alphaherpesvirus 2. Kind of data set: Antiviral activity against HSV-2 333 infected in African green monkey Vero cells incubated for 3 days by plaque reduction assay. Format: functional, organism-based. Particulars: Human alphaherpesvirus 2, 333, Vero, 72 h.
Data set [11] can be described thus: Selectivity index, ratio of CC50 for cytotoxicity against African green monkey Vero cells to IC50 for antiviral activity against HSV-1 15577 infected in African green monkey Vero cells. It counts as toxicity, cell-based. Conditions: read-out: Ratio CC50/IC50.
A short description of data set [12]: Selectivity index, ratio of CC50 for cytotoxicity against African green monkey Vero cells to IC50 for antiviral activity against HSV-1 clinical isolate infected in African green monkey Vero cells. It counts as toxicity, cell-based. Conditions: read-out: Ratio CC50/IC50.
Data set [13] in a line: Selectivity index, ratio of CC50 for cytotoxicity against African green monkey Vero cells to IC50 for antiviral activity against HSV-2 333 infected in African green monkey Vero cells. It counts as toxicity, cell-based. Conditions: read-out: Ratio CC50/IC50.
For data set [14], the system named is Human alphaherpesvirus 2. Kind of data set: Antiviral activity against HSV-2 VR-734 infected in human HeLa cells. Format: functional, organism-based. Particulars: Human alphaherpesvirus 2, VR-734, HeLa.
In data set [15] the test system is Human alphaherpesvirus 2. Kind of data set: Antiviral activity against HSV-2 VR-734 infected in African green monkey Vero cells assessed as inhibition of viral replication measured after 72 hrs by MTT assay. It counts as functional, organism-based. Particulars: Human alphaherpesvirus 2, VR-734, Vero.
In data set [16] the test system is Human alphaherpesvirus 2. Kind of data set: Antiviral activity against HSV-2 VR-734 infected in human NCI-H1299 cells. It counts as functional, organism-based. Conditions: Human alphaherpesvirus 2, VR-734, NCI-H1299.
Data set [17] relates to Human immunodeficiency virus 1. Kind of data set: Antiviral activity against HIV-1 infected in human leucocytes assessed as inhibition of viral replication. It counts as functional. Particulars: Human immunodeficiency virus 1, Leucocyte.
Data set [18] relates to Human immunodeficiency virus 1. Kind of data set: Antiviral activity against HIV-1 infected in human macrophages assessed as inhibition of viral replication. It counts as functional. Particulars: Human immunodeficiency virus 1, Macrophage.
In data set [19] the test system is Human immunodeficiency virus 1. In words: Antiviral activity against HIV-1 NL 4-3 (X4) infected in human MT4 cells assessed as inhibition of virus induced cytopathic effect by MTT assay. Format: functional, organism-based. Particulars: Human immunodeficiency virus 1, NL 4-3 (X4).
Data set [20] can be described thus: Cytotoxicity against human MT4 cells by MTT assay. It counts as toxicity, cell-based.
Data set [21] in a line: Selectivity index, ratio of CC50 for cytotoxicity against human MT4 cells to EC50 for antiviral activity against HIV-1 NL 4-3 (X4) infected in human MT4 cells. Format: toxicity, cell-based. Conditions: read-out: Ratio CC50/EC50.
For data set [22], the system named is Human immunodeficiency virus 1. Kind of data set: Antiviral activity against HIV-1 NL 4-3 (X4) infected in human TZM-bl cells assessed as inhibition of virus induced cytopathic effect by luciferase based assay. Particulars: Human immunodeficiency virus 1, NL 4-3 (X4). Format: functional, organism-based.
Data set [23] is described as follows: Cytotoxicity against human TZM-bl cells by luciferase assay. It counts as toxicity, cell-based.
The nature of data set [24]: Selectivity index, ratio of CC50 for cytotoxicity against human TZM-bl cells to EC50 for antiviral activity against HIV-1 NL 4-3 (X4) infected in human TZM-bl cells. Particulars: read-out: Ratio CC50/EC50. Format: toxicity, cell-based.
For data set [25], the system named is Human immunodeficiency virus 1. Kind of data set: Antiviral activity against HIV-1 Bal (R5) infected in human TZM-bl cells assessed as inhibition of virus induced cytopathic effect by luciferase based assay. Format: functional, organism-based. Particulars: Human immunodeficiency virus 1, Bal (R5).
Data set [26] is described as follows: Selectivity index, ratio of CC50 for cytotoxicity against human TZM-bl cells to EC50 for antiviral activity against HIV-1 Bal (R5) infected in human TZM-bl cells. It counts as toxicity, cell-based. Particulars: read-out: Ratio CC50/EC50.
Data set [27] is described as follows: Inhibition of influenza B virus B/Jiangsu/10/2003 neuraminidase.
Data set [28] has as its system Influenza A virus. In words: Antiviral activity against influenza A virus A/Guangdong/243/72 ([…]) infected in MDCK cells assessed as inhibition of virus-induced cytopathic effect. Format: functional, organism-based.
Data set [29] in a line: Selectivity index, ratio of CC50 for cytotoxicity against MDCK cells to IC50 for influenza A virus A/Guangdong/243/72 ([…]) infected in MDCK cells. Format: toxicity, cell-based. Particulars: dog, read-out: Ratio CC50/IC50.
In data set [30] the test system is Influenza A virus. Kind of data set: Antiviral activity against influenza A virus A/PR/8/34 (H1N1) infected in human A549 cells assessed as inhibition of RANTES production incubated for 48 hrs by ELISA. It counts as functional, organism-based. Particulars: A549, 48 h.
Data set [31] in a line: Cytotoxicity against human A549 cells assessed as reduction in cell viability by Alamar blue assay. It counts as toxicity, cell-based.
Another data set concerns Vero C1008. In words: Cytotoxicity against African green monkey Vero E6 cells infected with Middle East respiratory syndrome coronavirus assessed as reduction in cell viability at 250 uM by LDH assay relative to control. It counts as toxicity, cell-based. Particulars: chlorocebus sabaeus, vero c1008, 250 µM.
Data set [32] in a line: Cytotoxicity against human C8166 cells assessed as inhibition of cell growth by MTT assay. It counts as toxicity, cell-based.
The test system of data set [33] is Human immunodeficiency virus 1. In words: Antiviral activity against HIV-1 infected in human C8166 cells assessed as inhibition of viral replication. It counts as functional, organism-based. Particulars: Human immunodeficiency virus 1, C8166.
The nature of data set [34]: Therapeutic index, ratio of CC50 for cytotoxicity against human C8166 cells to EC50 for antiviral activity against HIV-1 infected in C8166 cells. Format: toxicity, cell-based. Particulars: read-out: Ratio CC50/EC50.
Data set [35] can be described thus: Cytotoxicity against HEK293T cells. Conditions: human, read-out: TC50 (the source's name). Format: toxicity, cell-based, HEK-293T.
Data set [36] has as its system Human immunodeficiency virus 1. Kind of data set: Antiviral activity against HIV-1 infected in HEK293T cells. Format: functional, organism-based. Conditions: Human immunodeficiency virus 1, HEK-293T.
For another data set, the system named is rhinovirus A1B. Kind of data set: Antiviral activity against HRV1B infected in human HeLa cells assessed as reduction in cytopathic effect by SRB assay. Format: functional, organism-based. Particulars: Rhinovirus A.
The next data set relates to dengue virus type 2. Kind of data set: Antiviral activity against Dengue virus 2 New Guinea C infected in human Huh-7 cells assessed as reduction in virus induced cytopathic effect incubated for 3 days by trypan blue staining based assay. Format: functional, organism-based. Particulars: Huh-7, 72 h.
Data set [37] in a line: Cytotoxicity against human Huh-7 cells assessed as reduction in cell viability incubated for 3 days by MTT assay. It counts as toxicity, cell-based. Conditions: time 3 day.
Data set [38] can be described thus: Selectivity index, ratio of CC50 for cytotoxicity against human Huh-7 cells to EC50 for Dengue virus 2 New Guinea C infected in human Huh-7 cells. Format: toxicity, cell-based. Particulars: read-out: Ratio CC50/EC50.

In brackets after ≈: the same amount, converted by molar mass.

Take `O=C(O)c1ccccc1/N=N/c1ccc(O)cc1O`: the concentration giving a half-maximal response (EC50) in the data set with Influenza A virus [1] came out at 7.28 µg/mL (≈ 28.2 µM). Further, in data set [2], the CC50 at 72 h was over 100 µg/mL.
Consider `Oc1ccc(C2Oc3ccc(/C=C/c4cc(O)cc5c4C(c4cc(O)cc(O)c4)C(c4ccc(O)cc4)O5)cc3C2c2cc(O)cc3c2C(c2cc(O)cc(O)c2)C(c2ccc(O)cc2)O3)cc1` (stereo not drawn), for which the half-maximal effective concentration (EC50) in the data set with Hepatitis C virus [3] was found to be 6 nM; in the data set with Hepatitis C virus [5], 3 nM; with Hepatitis C virus [6], 1 nM; in the data set on Hepatitis C virus [7], 3 nM. Further, in [4], the CC50 is over 10000 nM.
For `CC1=C[C@H](c2c(O)cc(/C=C/c3ccc(O)cc3O)cc2O)[C@@H](C(=O)c2ccc(O)cc2O)[C@H](c2ccc(O)cc2O)C1`, the results for the IC50 in the data set with Human alphaherpesvirus 1 [8], with Human alphaherpesvirus 1 [9] and with Human alphaherpesvirus 2 [10] were 2.2 µg/mL (≈ 3.78 µM), 1.5 µg/mL (≈ 2.57 µM) and 2.5 µg/mL (≈ 4.29 µM), respectively. The selectivity ratio worked out at 37 in data set [11], 55 in data set [12] and 32 in data set [13].
As to `Oc1ccc([C@H]2c3c(O)cc(O)cc3[C@@H]3c4c(cc(O)cc4[C@H]4[C@@H](c5ccc(O)cc5)c5c(O)cc(O)cc5[C@H]5c6c(cc(O)cc6[C@H]24)O[C@@H]5c2ccc(O)cc2)O[C@H]3c2ccc(O)cc2)cc1`, the half-maximal inhibitory concentration (IC50) in the data set on Human alphaherpesvirus 2 [14], in the data set with Human alphaherpesvirus 2 [15] and in the data set on Human alphaherpesvirus 2 [16] was 3200 nM in each case.
For the compound `CC(=O)CC(=O)Nc1ccc(/C=C/c2ccc(-n3nccc3O)cc2S(=O)(=O)O)c(S(=O)(=O)O)c1`, the 90% effect concentration (EC90) in data set [17] and in [18] was 500 nM throughout.
With `Oc1cc(/C=C/c2cc(O)c(O)c(O)c2)cc(O)c1O`, the EC50 in data set [19] worked out at 740 nM; in [22] it was 290 nM; in data set [25] it was 1690 nM. Also, the CC50 in data set [20] stood at 11900 nM; in [23] it was 20100 nM. Further, the selectivity ratio in [21] is 16; in [24], 69; in data set [26] it was 12.
As for `Oc1ccc(/C=C/c2cc(O)c3c(c2)O[C@H](c2ccc(O)cc2O)[C@H]3c2cc(O)cc(O)c2)cc1`, the IC50 was 26.3 µg/mL (≈ 55.9 µM) in data set [27], 0.67 µg/mL (≈ 1.42 µM) in the data set on Influenza A virus [28] and 0.67 µg/mL (≈ 1.42 µM) in the data set on Influenza A virus [1]. Moreover, the selectivity ratio in data set [29] stood at 57.4.
For `Oc1ccc(/C=C/c2cc(O)cc(O)c2)cc1` [RESVERATROL], the IC50 in the data set with Influenza A virus [28] was over 22.2 µg/mL; in the data set with rhinovirus A1B, 29700 nM. The EC50 was 28400 nM in the data set on Influenza A virus [30], 4.37 µg/mL (≈ 19.1 µM) in [33] and over 75000 nM in data set [36]. The CC50 in data set [31] is 52600 nM; in [32], 35.6 µg/mL (≈ 156 µM); in data set [35], over 300000 nM. The Activity with Vero C1008 is listed as 25%. In [34], the selectivity ratio worked out at 8.14.
As for `COc1cc(/C(C)=C/c2cc3ccccc3[nH]2)cc(OC)c1OC`, the EC50 with dengue virus type 2 is 8.12 nM. Besides, the CC50 at 72 h in data set [37] is 1700 nM. In addition, the selectivity ratio in data set [38] was 209.

By EC50 is commonly meant the concentration that produces a half-maximal response. For orientation: IC50 means the concentration at which inhibition is half-maximal. In general, EC90 refers to the concentration at which the effect reaches the 90% level.
